{
  "source": "paper PMC7607171",
  "about": "“Optimized low‐dose combinatorial drug treatment boosts selectivity and efficacy of colorectal carcinoma treatment” (Molecular Oncology, 2020)",
  "key": {"[1]": {"assay": "Serum and intratumor drug concentration at experimental endpoint, DLD1 model", "assay_type": "in vivo, mice", "details": "for concentration at 1 h / Kp at 1 h: Swiss Nu/nu, mouse, oral; for concentration at 1 h: 1h post-treatment at endpoint (day 15); for Kp at 1 h: tumor vs serum, read-out: ratio tumor vs serum; for Kp at 1 h / ratio ODC vs single drug: DLD1 model", "protocol": "At the experimental endpoint, plasma and tumors were collected 1h post‐treatment and part of the tumor tissue was used to determine the intratumor drug concentrations. Plasma and tumor samples were analyzed using the same LC‐MS/MS method used for drug determination in DBS. Before analysis, tumor tissues were homogenized in a 1 mL mixture of water/acetonitrile (30/70). Hundred uL of homogenates were transferred into new tubes and 50 µL of acetonitrile, as well as 50 µL of a mix of internal standards in MeOH were added. Tubes were vortexed and centrifuged for 10 min at 9,000 rpm. The supernatant (100 µL) was evaporated under nitrogen and reconstituted in 100 µL of acetonitrile with 0.1% formic acid/water with 0.1% formic acid (30/70). 10 µL was then injected into the LC‐MS/MS system. Plasma samples were spotted onto the same paper used for whole blood analysis and were extracted and analyzed using the same methods as used for DBS."}, "[2]": {"assay": "Pharmacokinetics, dried blood spot LC-MS/MS, mice with DLD1 tumors", "assay_type": "in vivo", "details": "for Tmax / AUC(0-t) / Cmax: Swiss Nu/nu, mouse, whole blood (dried blood spot), po, regorafenib 15, erlotinib 12.5, selumetinib 5, vemurafenib 75 mg/kg; for AUC(0-t) / Cmax: whole blood, mean ± SD; for AUC(0-t): oral, read-out: AUC0-24h", "protocol": "The pharmacokinetic (PK) study was performed using the dried blood spot method. Mice were treated with CTRL, ODCs, and corresponding monotherapies as described above. To determine the disposition in blood in the first 24h, blood samples (5 µL/mouse) were collected from the tail vein (n = 4 mice) at 2h, 4h, 8h, and 24h time points and transferred onto paper (a filter paper 903 protein saver card from Whatman (MA, USA)). A disk with the entire spot was punched from the paper card and transferred to the HPLC vial tube. Hundred µL of MeOH containing a mix of internal standards was added, and the tube was vortex‐mixed for about 1 min before injecting 10 µL into the LC‐MS/MS system. The LC‐MS/MS system consisted of an API 4,000 triple quadrupole mass spectrometer (AB sciex, Concord, ON, Canada) controlled by analyst 1.6.1 software. The mass spectrometer was operated in the multiple reaction monitoring (MRM) mode with positive electrospray ionization. The instrument was coupled with an Agilent series 1100 (Waldbronn, Germany) LC system. Chromatography was performed on a Phenomenex Kinetex C18 analytical column (50 mm x 2.1 mm, 2.6 um; Torrance, CA, USA). The flow rate was 0.5 mL/min using gradient elution conditions. The method was fully validated before application to this pharmacokinetic study."}, "[3]": {"assay": "Clinical plasma pharmacokinetics in patients, plasma concentration limit calculation", "assay_type": "in vivo", "details": "average plasma concentration calculated from AUC0-24h in patients", "protocol": "To select for clinically relevant doses, the clinically attainable drug concentration measured in the blood plasma of patients after treatment is used to calculate the concentration limit for in vitro experiments. […] The average drug concentration is calculated from the AUC0–24h and is implemented as the plasma concentration limit (PCL) which drug dose selection must remain below for in vitro experiments. If a drug is FDA approved, the AUC0–24h selected is the one corresponding to the recommended dose in clinical practice. If a drug is in clinical trials, the AUC0–24h selected is the one corresponding to the maximum tolerated dose in early stage clinical trials. Note, experiments were conducted with the most current PCL calculated from the AUC0–24h information available at the start of experiments (December 2017), see Table S4."}, "DLD1 tumors": {"tested_on": "DLD1 tumors", "assay": "Subcutaneous xenograft tumor growth", "assay_type": "in vivo, Swiss nu/nu mice", "protocol": "All procedures including animal use were performed in accordance with the Institutional Ethical Committee of Animal Care in Geneva and the Swiss Cantonal Veterinary Office (Authorization number GE‐136‐19). Briefly, female and male Swiss nu/nu mice aged 6–8 weeks were obtained from Charles River (Écully, France). For subcutaneous xenografts mice were inoculated in the left flank with 5x10^6 DLD1 or SW620 cells suspended in 100 µL of cell culture medium, supplemented with 1% FBS.\nDrugs were administered through oral gavage based on average body weight of the males (100 µL/mouse) and females (80 µL/mouse) at various concentrations, see Tables S10 and S11.\nSolution A: step (1) 30% PEG 400 + 5% propylene glycol + 0.5% Tween 80 and (2) 64.5% sterile H2O. Solution B: step (1) 10% DMSO, (2) 30% PEG 300 + 5% Tween 80 and (3) 55% sterile H2O. […] FOLFOX was administered as 6 mg/kg oxaliplatin two hours before administration of 90 mg/kg leucovorin and 50 mg/kg (DLD1) or 25 mg/kg (SW620) 5‐fluorouracil at day 1 and a repeat of 5‐fluorouracil dosing on day 2.\nThe Bliss independence model can be used to evaluate the drug interaction potential of a drug mixture. […] The model is based on the probability theory and requires the drug activity of each drug at the selected dose to predict the inhibition rate (IR) at additive doses."}, "[4]": {"details": "0-24h; ref EPAR WC00033991; cited from earlier work"}, "[5]": {"details": "given as part of DLD1-specific ODC"}, "[6]": {"details": "erlotinib 5 mg/kg, Exp 1, Day 11"}, "[7]": {"details": "erlotinib 12.5 mg/kg, Exp 1, Day 11"}, "[8]": {"details": "erlotinib 12.5 mg/kg, Exp 5, Day 16"}, "[9]": {"details": "erlotinib 12.5 mg/kg, Exp 7, Day 15"}},
  "note": "Several values for one entry are separate records, joined by “and”; a condition that tells them apart may be missing. Equal values may be shown once. Read-outs that look alike come from different tables or passages of the source.",
  "data": [
    {"smiles": "C#Cc1cccc(Nc2ncnc3cc(OCCOC)c(OCCOC)cc23)c1", "note": "[erlotinib]", "values": [
      {"measurement": "concentration at 1 h", "setting": "[1]; serum, as part of ODC, regorafenib 15, erlotinib 12.5, selumetinib 5, vemurafenib 75 mg/kg, read-out: concentration serum", "result": "3040 ± 910", "unit": "ng/mL"},
      {"measurement": "concentration at 1 h", "setting": "[1]; serum, single drug, regorafenib 15, erlotinib 12.5, selumetinib 5, vemurafenib 75 mg/kg, read-out: concentration serum", "result": "2330 ± 180", "unit": "ng/mL"},
      {"measurement": "concentration at 1 h", "setting": "[1]; tumor (DLD1), as part of ODC, DLD1 tumor, doses as E156, read-out: concentration tumor", "result": "7600 ± 3200", "unit": "ng/g"},
      {"measurement": "concentration at 1 h", "setting": "[1]; tumor (DLD1), single drug, DLD1 tumor, doses as E156, read-out: concentration tumor", "result": "3620 ± 140", "unit": "ng/g"},
      {"measurement": "Kp at 1 h", "setting": "[1]; as part of ODC", "result": 2.5},
      {"measurement": "Kp at 1 h", "setting": "[1]; single drug", "result": 1.55},
      {"measurement": "ratio ODC vs single drug", "setting": "[1]; serum", "result": 1.31},
      {"measurement": "ratio ODC vs single drug", "setting": "[1]; tumor", "result": 2.10},
      {"measurement": "Tmax", "setting": "[2]; [5]", "result": 2, "unit": "h"},
      {"measurement": "AUC(0-t)", "setting": "[2]; [5]", "result": "22300 ± 5140", "unit": "ng·h/mL"},
      {"measurement": "Cmax", "setting": "[2]; [5]", "result": "3370 ± 2160", "unit": "ng/mL"},
      {"measurement": "Tmax", "setting": "[2]; mono", "result": 2, "unit": "h"},
      {"measurement": "AUC(0-t)", "setting": "[2]; mono", "result": "19600 ± 7660", "unit": "ng·h/mL"},
      {"measurement": "Cmax", "setting": "[2]; mono", "result": "2610 ± 860", "unit": "ng/mL"},
      {"measurement": "increase of AUC as part of the ODC vs single-drug treatment", "setting": "[2]; mice with DLD1 tumors, AUC0-24h", "result": 1.14, "unit": "x"},
      {"measurement": "PCL (plasma concentration limit)", "setting": "[3]", "result": "1.61 µM and 1.6 µM"},
      {"measurement": "% CTRL (tumor volume)", "setting": "DLD1 tumors; [6]", "result": "104 72 27 % CTRL"},
      {"measurement": "Volume", "setting": "DLD1 tumors; [6]", "result": "482 336 127 mm^3"},
      {"measurement": "% CTRL (tumor volume)", "setting": "DLD1 tumors; [7]", "result": "87 35 13 % CTRL"},
      {"measurement": "Volume", "setting": "DLD1 tumors; [7]", "result": "405 161 61 mm^3"},
      {"measurement": "% CTRL (tumor volume)", "setting": "DLD1 tumors; [8]", "result": "66 28 12 % CTRL"},
      {"measurement": "Volume", "setting": "DLD1 tumors; [8]", "result": "420 178 80 mm^3"},
      {"measurement": "% CTRL (tumor volume)", "setting": "DLD1 tumors; [9]", "result": "98 44 22 % CTRL"},
      {"measurement": "Volume", "setting": "DLD1 tumors; [9]", "result": "420 211 86 mm^3"},
      {"measurement": "AUC", "setting": "[4]", "result": 15.2, "unit": "mg*h/L EPAR WC00033991"}
    ]}
  ]
}
